Reference: patent publication US6482609B1, “Isolated human EDG-4 receptor and polynucletide encoding said receptor” (priority 1997, dated 2002)
“Also recorded” adds a separate entry of the source.

Tests used:
[1] = tested on: 293-EBNA cells transfected with empty expression vector pcDNA3; assay: NF-κB luciferase reporter in 293-EBNA cells, empty vector pcDNA3; assay type: cell-based; conditions: for NF-κB reporter response in control cells: pcDNA3-transfected 293-EBNA; for NF-κB reporter induction in control cells: pcDNA3, 3 μM, 6 hours, Assay #3
Experimental: Monolayer Transient Transfection Protocol for 293-EBNA
2) 6.6 μg NF-κB-tk-p4Luc reporter DNA and 6.6 μg of pC3-redg4 (expressing rat EDG-4), or pcDNA3 DNA was diluted in 500 μl OPTI-MEM (Gibco; Cat. 31985-062)
2) After 6 hrs, media was removed and cells treated with compounds diluted in 0.5% FBS media (140 μl added to each well).
3) Cells were treated for 24 hrs.
1) Luclite kit (Packard; Cat. 6016911) was used for luciferase assay. All reagents were brought to room temperature before use.
7) After incubation, plates were counted in a 12-detector Packard Top Count on a program without dark delay.
The above protocol for assay 1 was followed except for the following changes:
2) 3 μg NFκB-tk-p4Luc reporter DNA and 3 μg pC3-hedg1, pC3-hedg3, pC3-redg4, pC3-hedg5 or pcDNA3 DNA was diluted in 240 μl OPTI-MEM (Gibco; Cat. 31985-062)
(§1) 2) SRE Cotransfection: 0.5 μg of 2XSREtk-p4Luc-zeo reporter DNA and 3.5 μg pcDNA3, EDG-1, EDG-3 (pC3-hE3HP2, different from the clone used in Assay 2 of Example 11) or the newly cloned human EDG-4 (pC3-hedg4#36); NF-κB Cotransfection: 2 μg 6XNFκBtk-p4Luc-zeo reporter DNA and 2.0 μg pcDNA3, EDG-1, EDG-3 (pC3-hE3HP2), or EDG-4 (pC3-hedg4#36). Expression plasmid and reporter plasmid DNA samples were combined and diluted in 750 μl of DMEM/F12 (serum free media) and 20 μl Plus Reagent (Lipofectamine Plus Kit, Life Technologies Cat. 10964-013), and incubated at room temperature for 15 min.
(§2) 1) Media was removed and cells treated with compounds diluted in DMEM/F12 media.
(§3) 2) The cells were treated for 6 hours.
(§4) 293-EBNA cells were grown, lipofected in monolayer cultures, and pretreated as described above for Example 11, assay #1, except that NF-κB and AP-1 reporter-transfected cells were pretreated for 6 hr in medium containing 0.5% FBS, then treated overnight in the same medium with or without 10 μM LPA.

[2] = molecular target: human EDG-4 (Homo sapiens, UniProt O95136); assay: SRE luciferase reporter in 293-EBNA cells, human EDG-4; assay type: cell-based; conditions: for Agonist character at EDG-4: conclusion from the reporter assay of Table 2; for Rank (EMax): rank of efficacy among compounds tested
Experimental: (§5) NE-κB activates gene expression by binding to specific DNA sequences found in the promoters of genes regulated by this inflammation-related transcription factor. […] The SRE reporter was identical to the NF-κB reporter, except that the NF-κB binding sites were replaced with 2 SRE sites. The new reporter was called 2XSREtk-p4Luc-zeo.
(§6) The protocol described in Example 11 for Assay 1 was followed except for the following changes:
as §1, §2, §3
3) Luciferase assay was performed.
(§7) Transfection was accomplished using the Lipofectamine Plus kit (Life Technologies, Cat. 10964-013), using the manufacturer's recommended conditions.
Transfection of EDG-4, expression, pretreatment and treatment of 293-EBNA cells expressing recombinant human EDG-4 was carried out essentially as described in “Example 11. […] Results were tabulated in Microsoft Excel, and analyzed with GraphPad Prism software. […] The luciferase response was expressed as fold response, after subtracting any endogenous response in pcDNA3-transfected cells at a given concentration of compound.

[3] = tested on: 293-EBNA cells transfected with empty expression vector pcDNA3; assay: SRE luciferase reporter in 293-EBNA cells, empty vector pcDNA3; assay type: cell-based
Experimental: as §5, §6, §1, §2, §3, §7, §4

[4] = molecular target: rat edg4 (Rattus norvegicus, UniProt P47752); assay: NF-κB-tk-p4Luc luciferase reporter in 293-EBNA cells, rat EDG-4; assay type: cell-based; set-up: expressed in transfected cells; host or cells: 293-EBNA
Chain of rat edg4 (P47752 whole entry): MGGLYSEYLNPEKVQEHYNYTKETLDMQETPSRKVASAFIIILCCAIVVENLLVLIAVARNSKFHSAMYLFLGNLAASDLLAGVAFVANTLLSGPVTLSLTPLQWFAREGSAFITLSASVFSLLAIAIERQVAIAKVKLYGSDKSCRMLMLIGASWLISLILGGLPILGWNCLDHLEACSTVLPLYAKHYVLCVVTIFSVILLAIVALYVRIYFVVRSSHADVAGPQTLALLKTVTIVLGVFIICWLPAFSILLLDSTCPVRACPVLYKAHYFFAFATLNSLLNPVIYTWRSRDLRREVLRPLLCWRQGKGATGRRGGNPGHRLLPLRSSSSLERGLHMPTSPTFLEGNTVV
Experimental: 1) 150 mm plates of 293-EBNA obtained from Invitrogen (Cat. R620-07) with a confluency of ˜80% were used for transfection.
3) 96.8 μl Lipofectamine (Gibco; Cat. 18324-020) was diluted in 500 μl of OPTI-MEM.
6) 6 ml OPTI-MEM was added to each transfection tube and this was added to a plate of 293-EBNA cells. The plates were left for 4 hrs at 37° C. in a 5% CO2 incubator.
2) 0.02×10^6 cells were plated per well of a 96-well Blackview plate coated with polyD-lysine. No cells were plated in the outside wells of the 96well plate. Two 96-well plates were seeded for each transfection.
1) Cells were washed with PBS and 140 μl serum-free media (SFM) added to each well. Plates were incubated in 37° C. incubator for 6 hrs.
3) 50 μl 0.5M HEPES pH 7.8 buffer (1 mM MgCl2, 1 mM CaCl2) was added to all wells of 96-well plate. Black adhesive backing (Polyfitronics) was aligned to the bottom of the viewplate.
4) Luclite substrate was made up by adding 10 ml substrate diluent to 1 vial lyophilized substrate. Reconstituted substrate was kept under a dark container. 50 μl substrate was added to each well.
1) 0.01×10^6 cells were plated per well of a 96-well Blackview plate coated with polyD-lysine. No cells were plated in the outside wells of the 96-well plate.

[5] = tested on: HL-60 cells; assay: IL-8 ELISA on HL-60 cells; assay type: cell-based, human; conditions: 1, 6 or 24 hr, S1P or LPA up to 3 μM, TNF-α 10 ng/ml
Experimental: Procedure for HL-60 Cells:
Cells: HL-60 (promyelocytic, human) suspension cells
Media: RPMI 1640 medium with 2 mM L-glutamine adjusted to contain 4.5 g/L glucose, 10 mM HEPES, and 1.0 mM sodium pyruvate+10% FBS
1) Cells were plated at a density of 0.25×10^6 cells/ml.
2) Cell pellcts were resuspended in 0.5% FBS media at a density of approximately 1×10^6 cells/ml.
1) Made up all required solutions in 0.5% FBS media (control).
2) 1.4 ml appropriate treatments were added to each well of a 6-well plate.
5) 100 μl cell suspension was added to each well.
7) After the specified time cell supematants were collected into 1.5 ml eppendorf tubes, spun down at 14000 rpm for 5 minutes and stored at −20° C.
D. Refer to Procedure #1 For HeLa Cells (D).

[6] = tested on: COS-1 cells; assay: IL-8 ELISA on control COS-1 cells (empty vector pcDNA3); assay type: cell-based; conditions: COS-1 cells transfected with pcDNA3; S1P 5 μm
Experimental: A. DEAE/Dextran Cell Suspension Transient Transfection.
Transfection was done as described in Anal Biochem 218:460 (1994).
1) 6 ml RSC was added to 4-50 ml tubes. The following amounts of DNA were added:
3) 1.5 ml COS-1 cell suspension (5.5×10^6 cells total) in RSC was added to each tube and incubated for 105 min in 37° C. incubator. Tubes were mixed every 20 min.
4) Following incubation, tubes were spun for 5 min, cell pellets were washed with DMEM/F12+10% FBS once and then resuspended in 10 ml media. Cells were plated in 24-well plates at 0.2×10^6 cells/well.
500 μl treatment volume was used. Supernatants were microfuged at 14,000 rpm for 10 min., transferred to new eppendorf tubes and stored at −20° C. for future IL-8 ELISA determination.
The procedure as outlined in Procedure for HeLa Cells (D) was followed, using 50 μl of sample per ELISA determination in duplicate.

[7] = Assay #2, S1P, SPC 3 μM, 20% FBS

| SMILES | NF-κB reporter response in control cells [1, 7] | NF-κB reporter induction in control cells [1] | EC50 ([2]; 293-EBNA expressing human EDG-4, luciferase after 6 hr, pcDNA3 response subtracted) | Agonist character at EDG-4 [2] | Induction of the SRE reporter gene ([2]; pC3-hedg4#36, 3 μM SPC, 6 hr, Example 15A) | Rank (EMax) [2] | EMax (Percent) ([2]; relative efficacy, 6 hr) | Induction of the SRE reporter, control ([3]; 3 μM SPC, 6 hr, Example 15A) | Increase in luciferase activity (NF-κB reporter) ([4]; pC3-redg4, 3 μM, Assay #2) | PTX sensitivity of NF-κB reporter response ([4]; pC3-redg4, Assay #1) | NF-κB reporter induction (qualitative) ([4]; pC3-redg4, Assay #1, 24 hrs) | IL-8 release [5] | IL-8 response in control cells [6] | NF-κB reporter response in control cells ([1]; Assay #1) | SRE response in control cotransfection ([3]; 3 μM, 6 hours, Assay #3) | Increase in luciferase activity (NF-κB reporter) ([4]; pC3-redg4, 1 μM, 24 hrs) | Increase in luciferase activity (NF-κB reporter) ([4]; pC3-redg4, 5 μM or 10 μM, 24 hrs) |
| --- | --- | --- | --- | --- | --- | --- | --- | --- | --- | --- | --- | --- | --- | --- | --- | --- | --- |
| CCCCCCCCCCCCC/C=C/[C@@H](O)[C@@H](N)COP(=O)([O-])OCC[N+](C)(C)C [SPC, sphingosylphosphorylcholine] | No response | No such induction | 0.88 µM | full agonists | 26.3 fold | 1 | 100% | about 2.5 fold | 4 fold | PTX-sensitive | induced the reporter gene in EDG-4 expressing cells | – | – | – | – | – | – |
| CCCCCCCCCCCCC/C=C/[C@@H](O)[C@@H](N)COP(=O)(O)O [S1P, sphingosine-1-phosphate] | No response | No such induction | – | full agonists | – | 2 | – | – | 3.5 fold | – | – | no such release; also recorded: fail to produce IL-8 | No IL-8 response | No increase in luciferase activity | about 1.5 fold | 2 fold | 4-4.5 fold |
